pIC50: −log10 of the molar value. Read-outs that look alike come from different tables or passages of the source. Starred links: 1 amine or outer side, 2 acyl side, 3 side chain; linkers in the order of their positions; H or OH if unused. Positions of bridges follow the written chain, without caps; N, C: chain ends. Non-standard residues stand in square brackets, D forms with d. Residues, ends and D or L forms follow the SMILES beside them. ξ: configuration not given here. Phe(2,4-F2) = N[C@@H](Cc1ccc(F)cc1F)C(=O)O; γGlu = O=C(O)[C@H](CCC(=O)[*:2])N[*:1]; 2Nal = N[C@@H](Cc1ccc2ccccc2c1)C(=O)O; NMeThr(3ξ) = CN[C@H](C(=O)O)C(C)O; NMeN = CN[C@@H](CC(N)=O)C(=O)O; Ahp(2) = CCCCC[C@H](N)C(=O)O; NMeNle = CCCC[C@H](NC)C(=O)O; Tle = CC(C)(C)[C@H](N)C(=O)O; NHexGly = CCCCCCNCC(=O)O; Nle = CCCC[C@H](N)C(=O)O; Aun = NCCCCCCCCCCC(=O)O; AEEA = NCCOCCOCC(=O)O; ξS = NC(CO)C(=O)O
Biological target: T1, mouse VISTA (mVISTA) (Mus musculus, UniProt Q9D659)
T1 construct: expressed in transfected cells; host or cells: Human embryonic kidney 293T cells
T1 sequence (Q9D659 33-308): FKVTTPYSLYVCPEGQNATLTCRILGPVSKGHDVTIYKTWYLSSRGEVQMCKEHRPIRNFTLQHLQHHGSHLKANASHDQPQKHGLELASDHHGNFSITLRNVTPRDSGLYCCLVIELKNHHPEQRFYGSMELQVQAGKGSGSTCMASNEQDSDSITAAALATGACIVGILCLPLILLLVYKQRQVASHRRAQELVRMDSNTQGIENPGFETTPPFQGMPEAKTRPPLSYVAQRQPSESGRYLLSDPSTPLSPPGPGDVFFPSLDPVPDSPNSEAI
Assay: Cell-Based Binding High-Content Assay For mVISTA (HC CBA mVISTA)
Protocol: Cell-Based Binding High-Content Assay For mVISTA
Human embryonic kidney 293T cells (293T) expressing mouse VISTA (mVISTA) were used for the assessment of compounds competing with the binding of a biotinylated peptide. Cryopreserved cells were thawed in a 37° C. water bath and incubated overnight at a 37° C./5% CO2 incubator in assay culture media DMEM (Life Technologies Inc. Cat. No. 11995-126) supplemented with 10% (v/v) FBS (Sigma, Cat. No. F4135), 1× Penicillin/Streptomycin (Life Technologies Inc. Cat. No. 15140-122). Cells were harvested, washed and resuspended in DMEM media […]. To test compounds under “no-wash” condition, cells were seeded into PDL-coated 384 well plates (Corning, Cat. No. 356663) at 4,000 cells/20 μL. After incubating the cell plates for two hours at a 37° C./5% CO2 incubator, 125 nL of test compound was added using an ECHO. Alternatively, to test compounds under “wash” condition, test compounds were added first, followed by addition of 20 μL cells at a density of 4000 cells/well. After incubation for an hour, the media was removed, followed by addition of 20 μL of fresh media ( ), and plates were then incubated for another hour. To plates either under “no wash” or “wash” condition, the biotinylated peptide was added to a final concentration of 2 nM, and plates were incubated at room temperature for 30 minutes. Fifteen (15) μL of Alexa 647 conjugated Streptavidin (Life Tech, Cat. No. S21374), suspended at 2 μg/ml in media, was added to the assay plate and incubate for 30 minutes. Cells were fixed by adding 15 μL of formaldehyde at a final concentration of 8% (w/v) (Sigma Cat. No. 252549), 20 μg/mL Hoechst (Thermo Scientific Cat. No. 62249) in PBS for 10 minutes at room temperature. The plates were washed 3 times in dPBS, sealed, and read on a CellInsight NXT High Content Screening Platform IC903000 (Thermo Scientific). The 50% effective concentration (IC50) was calculated using the four-parameter logistic formula y=A+((B−A)/(1+((C/x)^D))), where A and B denote minimal and maximal % inhibition, respectively, C is the EC50, D is hill slope and x represent compound concentration.

[1] = 293T cells expressing mouse VISTA, competition with biotinylated peptide (2 nM), read-out: HC CBA mVISTA IC50
[2] = cell-based binding high-content assay, mVISTA, the 15th table, read-out: HC CBA mVISTA IC50

Row | SMILES | pIC50 (read-out: HC CBA mVISTA IC50) | other results
1 | CCCCCCN1CC(=O)N[C@@H](Cc2ccc(O)cc2)C(=O)N[C@@H](CCCC)C(=O)NCC(=O)N[C@@H](CCCNC(N)=O)C(=O)N[C@@H](CC(C)C)C(=O)N[C@@H](CCCCC)C(=O)N2CCC[C@H]2C(=O)N[C@@H](C(C)C)C(=O)N[C@@H](CC(=O)O)C(=O)N[C@H](C(=O)NCCOCCOCC(=O)N[C@@H](CC(=O)O)C(=O)NCCOCCOCC(=O)NCCCCCCCCCCC(=O)O)CSCC(=O)N[C@@H](Cc2cccc(C)c2)C(=O)N[C@@H](Cc2ccc(O)cc2)C(=O)N[C@@H](CC(=O)O)C1=O (stereo in doubt) [compound 2309] | – | pIC50 (cell-based binding high-content assay, read-out: HC CBA miPrISTA IC50): 7.75
2 | CCCCCCN1CC(=O)N[C@@H](Cc2ccc(O)cc2)C(=O)N[C@@H](CCCCC)C(=O)N[C@@H](CC(N)=O)C(=O)N[C@@H](C)C(=O)N[C@@H](CC(C)C)C(=O)N[C@@H](CCCCC)C(=O)N2CCC[C@H]2C(=O)N[C@@H](C(C)C)C(=O)N[C@@H](CO)C(=O)N[C@H](C(=O)NCC(N)=O)CSCC(=O)N[C@@H](Cc2ccccc2)C(=O)N[C@@H](Cc2ccc(O)cc2)C(=O)N[C@@H](CC(=O)O)C1=O [Example 1032] ({CH2CO}-FYD[NHexGly]Y[Ahp(2)]NAL[Ahp(2)]PVSCG-NH2; thioether N-14) | – | pIC50 [1]: 7.95
3 | CCCCCCN1CC(=O)N[C@@H](Cc2ccc(O)cc2)C(=O)N[C@@H](C(C)C)C(=O)NCC(=O)N[C@@H](CCCNC(=N)N)C(=O)N[C@@H](CC(C)C)C(=O)N[C@@H](CCCCC)C(=O)N2CCC[C@H]2C(=O)N[C@@H](C(C)C)C(=O)N[C@@H](CO)C(=O)N[C@H](C(=O)NCC(N)=O)CSCC(=O)N[C@@H](Cc2ccccc2)C(=O)N[C@@H](Cc2ccc(O)cc2)C(=O)N[C@@H](CC(=O)O)C1=O [Example 1054] ({CH2CO}-FYD[NHexGly]YVGRL[Ahp(2)]PVSCG-NH2; thioether N-14) | – | pIC50 [1]: 7.53
4 | CCCCCCN1CC(=O)N[C@@H](Cc2ccc(O)cc2)C(=O)N[C@@H](CCCC)C(=O)N[C@@H](CC(N)=O)C(=O)N[C@@H](CCCNC(=N)N)C(=O)N(C)[C@@H](CCCC)C(=O)N[C@@H](CCCCC)C(=O)N2CCC[C@H]2C(=O)N[C@@H](C(C)(C)C)C(=O)N[C@@H](CO)C(=O)N[C@H](C(=O)NCCOCCOCC(=O)N[C@@H](CCC(=O)NCCOCCOCC(=O)NCCCCCCCCCCC(=O)O)C(=O)O)CSCC(=O)N[C@@H](Cc2ccccc2)C(=O)N[C@@H](Cc2ccc(O)cc2)C(=O)N[C@@H](CC(=O)O)C1=O [compound 2224] ({CH2CO}-FYD[NHexGly]Y[Nle]NR[NMeNle][Ahp(2)]P[Tle]SC[AEEA][γGlu][AEEA][Aun]-OH; thioether N-14) | 7.73 | –
5 | CCCCCCN1CC(=O)N[C@@H](Cc2ccc(O)cc2)C(=O)N[C@@H](CCCCC)C(=O)N[C@@H](CC(N)=O)C(=O)N[C@@H](CCCNC(=N)N)C(=O)N(C)[C@@H](CCCC)C(=O)N[C@@H](CCCCC)C(=O)N2CCC[C@H]2C(=O)N[C@@H](C(C)C)C(=O)N[C@@H](CC(=O)O)C(=O)N[C@H](C(=O)NCC(=O)O)CSCC(=O)N[C@@H](Cc2ccc3ccccc3c2)C(=O)N[C@@H](Cc2c[nH]c3ccccc23)C(=O)N[C@@H](CC(=O)O)C1=O [compound 1251] ({CH2CO}-[2Nal]WD[NHexGly]Y[Ahp(2)]NR[NMeNle][Ahp(2)]PVDCG-OH; thioether N-14) | – | pIC50 [2]: 7.90
6 | CCCCCCN1CC(=O)N[C@@H](Cc2ccc(O)cc2)C(=O)N[C@@H](CC(C)C)C(=O)N[C@@H](CC(N)=O)C(=O)N[C@@H](CCCNC(=N)N)C(=O)N(C)[C@@H](CCCC)C(=O)N[C@@H](CCCCC)C(=O)N2CCC[C@H]2C(=O)N[C@@H](C(C)(C)C)C(=O)N[C@@H](CC(=O)O)C(=O)N[C@H](C(=O)NCCOCCOCC(=O)N[C@@H](CCC(=O)NCCOCCOCC(=O)NCCCCCCCCCCC(=O)O)C(=O)O)CSCC(=O)N[C@@H](Cc2ccccc2)C(=O)N[C@@H](Cc2ccc(O)cc2)C(=O)N[C@@H](CC(=O)O)C1=O [compound 2261] ({CH2CO}-FYD[NHexGly]YLNR[NMeNle][Ahp(2)]P[Tle]DC[AEEA][γGlu][AEEA][Aun]-OH; thioether N-14) | 7.62 | –
7 | CCCCCCN1CC(=O)N[C@@H](Cc2ccc(O)cc2)C(=O)N[C@@H](CCCCC)C(=O)NCC(=O)N[C@@H](CCCNC(=N)N)C(=O)N[C@@H](CC(C)C)C(=O)N[C@@H](CCCCC)C(=O)N2CCC[C@H]2C(=O)N[C@@H](C(C)C)C(=O)N[C@@H](CO)C(=O)N[C@H](C(=O)NCC(=O)NCCOCCOCC(=O)N[C@@H](CC(=O)O)C(=O)NCCOCCOCC(=O)NCCCCCCCCCCC(=O)O)CSCC(=O)N[C@@H](Cc2ccccc2)C(=O)N[C@@H](Cc2ccc(O)cc2)C(=O)N[C@@H](CC(=O)O)C1=O [compound 2013] ({CH2CO}-FYD[NHexGly]Y[Ahp(2)]GRL[Ahp(2)]PVSCG[AEEA]D[AEEA][Aun]-OH; thioether N-14) | – | pIC50 (cell-based binding high-content assay, mVISTA, read-out: HC CBA miPr ISTA IC50): 7.59
8 | CCCCCCN1CC(=O)N[C@@H](Cc2ccc(O)cc2)C(=O)N[C@@H](CCCC)C(=O)N[C@@H](CC(N)=O)C(=O)N[C@@H](CCCNC(=N)N)C(=O)N(C)[C@@H](CC(N)=O)C(=O)N[C@@H](CCCCC)C(=O)N2CCC[C@H]2C(=O)N[C@@H](C(C)C)C(=O)N[C@@H](CC(=O)O)C(=O)N[C@H](C(=O)NCC(=O)O)CSCC(=O)N[C@@H](Cc2ccc3ccccc3c2)C(=O)N[C@@H](Cc2c[nH]c3ccccc23)C(=O)N[C@@H](CC(=O)O)C1=O [compound 1241] ({CH2CO}-[2Nal]WD[NHexGly]Y[Nle]NR[NMeN][Ahp(2)]PVDCG-OH; thioether N-14) | – | pIC50 [2]: 7.45
9 | CCCCCCN1CC(=O)N[C@@H](Cc2ccc(O)cc2)C(=O)N[C@@H](CCCC)C(=O)N[C@@H](CC(N)=O)C(=O)N[C@@H](CCCNC(=N)N)C(=O)N[C@@H](CC(C)C)C(=O)N[C@@H](CCCCC)C(=O)N2CCC[C@H]2C(=O)N[C@@H](C(C)(C)C)C(=O)N[C@@H](CO)C(=O)N[C@H](C(=O)NCC(N)=O)CSCC(=O)N[C@@H](Cc2ccccc2)C(=O)N[C@@H](Cc2c[nH]c3ccccc23)C(=O)N[C@@H](CC(=O)O)C1=O [Example 1364] ({CH2CO}-FWD[NHexGly]Y[Nle]NRL[Ahp(2)]P[Tle]SCG-NH2; thioether N-14) | 7.36 | –
10 | CCCCCCN1CC(=O)N[C@@H](Cc2ccc(O)cc2)C(=O)N[C@@H](CC(C)C)C(=O)N[C@@H](CC(N)=O)C(=O)N[C@@H](CCCNC(=N)N)C(=O)N(C)[C@@H](C(C)O)C(=O)N[C@@H](CCCCC)C(=O)N2CCC[C@H]2C(=O)N[C@@H](C(C)(C)C)C(=O)N[C@@H](CC(=O)O)C(=O)N[C@H](C(=O)NCCOCCOCC(=O)N[C@@H](CCC(=O)NCCOCCOCC(=O)NCCCCCCCCCCC(=O)O)C(=O)O)CSCC(=O)N[C@@H](Cc2ccccc2)C(=O)N[C@@H](Cc2c[nH]c3ccccc23)C(=O)N[C@@H](CC(=O)O)C1=O (stereo partly drawn) [compound 2273] ({CH2CO}-FWD[NHexGly]YLNR[NMeThr(3ξ)][Ahp(2)]P[Tle]DC[AEEA][γGlu][AEEA][Aun]-OH; thioether N-14) | 7.47 | –
11 | CCCCCCN1CC(=O)N[C@@H](Cc2ccc(O)cc2)C(=O)N[C@@H](CCCCC)C(=O)N[C@@H](CC(N)=O)C(=O)N[C@@H](CCCNC(=N)N)C(=O)N(C)[C@@H](CCCC)C(=O)N[C@@H](CCCCC)C(=O)N2CCC[C@H]2C(=O)N[C@@H](C(C)C)C(=O)N[C@@H](C(C)C)C(=O)N[C@H](C(=O)NCC(=O)O)CSCC(=O)N[C@@H](Cc2ccc(F)cc2F)C(=O)N[C@@H](Cc2ccc(F)cc2F)C(=O)N[C@@H](CC(=O)O)C1=O [compound 1217] ({CH2CO}-[Phe(2,4-F2)][Phe(2,4-F2)]D[NHexGly]Y[Ahp(2)]NR[NMeNle][Ahp(2)]PVVCG-OH; thioether N-14) | 7.79 | –
12 | CCCCCCN1CC(=O)N[C@@H](Cc2ccc(O)cc2)C(=O)N[C@@H](CCCCC)C(=O)N[C@@H](CC(N)=O)C(=O)N[C@@H](CCCNC(=N)N)C(=O)N(C)[C@@H](CCCC)C(=O)N[C@@H](CCCCC)C(=O)N2CCC[C@H]2C(=O)N[C@@H](C(C)C)C(=O)N[C@@H](CC(=O)O)C(=O)N[C@H](C(=O)NC(CO)C(=O)O)CSCC(=O)N[C@@H](Cc2ccc3ccccc3c2)C(=O)N[C@@H](Cc2ccc(F)cc2F)C(=O)N[C@@H](CC(=O)O)C1=O (stereo partly drawn) [compound 1202] ({CH2CO}-[2Nal][Phe(2,4-F2)]D[NHexGly]Y[Ahp(2)]NR[NMeNle][Ahp(2)]PVDC[ξS]-OH; thioether N-14) | 7.79 | –
